In PubChem BioAssay AID248 (DTP/NCI, 2004):
Values joined by “and” are separate entries in the source; they are usually repeats but may differ in a detail not shown here. Equal entries are not always repeated. Inconclusive results and toxic doses are left out. Rule as the data show it: active = T/C of 150% or more; inactive = T/C below 125%.

Test system: L1210 leukemia ip in BDF1 mice, survival T/C
Assay: NCI In Vivo Anticancer Drug Screen. Data for tumor model L1210 Leukemia (intraperitoneal) in B6D2F1 (BDF1) mice
Conditions: higher = longer survival
Summary of the method: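 Each compound was tested against a transplantable tumor grown in mice. The endpoint was survival, with treated animals benchmarked against vehicle controls as a simple ratio.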

Measured: T/C

CC(CN1CC(=O)NC(=O)C1)N1CC(=O)NC(=O)C1 (stereo not drawn)
inactive: endpoint: mean survival time, dose: 1.6 mg/kg/injection, schedule: Q03HX016 (oral), vehicle: steriod suspending solution 122 % of control | endpoint: mean survival time, dose: 1.6 mg/kg/injection, schedule: Q03HX024 (oral), vehicle: steriod suspending solution 124 % of control | endpoint: mean survival time, dose: 6.25 mg/kg/injection, schedule: Q03HX008 (ip), vehicle: steriod suspending solution 118 % of control | endpoint: mean survival time, dose: 12.5 mg/kg/injection, schedule: Q01DX009 (sc), vehicle: steriod suspending solution 117 % of control | endpoint: mean survival time, dose: 12.5 mg/kg/injection, schedule: Q03HX024 (oral), vehicle: steriod suspending solution 101 % of control | endpoint: mean survival time, dose: 12.5 mg/kg/injection, schedule: Q04DX003 (ip), vehicle: steriod suspending solution 109 % of control | endpoint: mean survival time, dose: 25.0 mg/kg/injection, schedule: Q04DX003 (ip), vehicle: Klucel (hydroxypropylcellulose) (HPC) 109 % of control | endpoint: mean survival time, dose: 25.0 mg/kg/injection, schedule: Q04DX003 (ip), vehicle: steriod suspending solution 103 % of control | endpoint: mean survival time, dose: 25.0 mg/kg/injection, schedule: Q04DX003 (iv), vehicle: water 113 % of control and 122 % of control | endpoint: mean survival time, dose: 25.0 mg/kg/injection, schedule: Q04DX003 (oral), vehicle: steriod suspending solution 115 % of control | endpoint: mean survival time, dose: 32.0 mg/kg/injection, schedule: Q04DX003 (ip), vehicle: saline with Tween-80 104 % of control | endpoint: mean survival time, dose: 50.0 mg/kg/injection, schedule: Q01DX001 (ip), vehicle: saline 107 % of control | endpoint: mean survival time, dose: 50.0 mg/kg/injection, schedule: Q01DX001 (ip), vehicle: steriod suspending solution 107 % of control | endpoint: mean survival time, dose: 50.0 mg/kg/injection, schedule: Q01DX009 (oral), vehicle: steriod suspending solution 98 % of control and 121 % of control | endpoint: mean survival time, dose: 50.0 mg/kg/injection, schedule: Q03HX024 (ip), vehicle: steriod suspending solution 104 % of control | endpoint: mean survival time, dose: 50.0 mg/kg/injection, schedule: Q04DX003 (ip), vehicle: steriod suspending solution 100 % of control | endpoint: mean survival time, dose: 50.0 mg/kg/injection, schedule: Q04DX003 (iv), vehicle: water 112 % of control and 115 % of control and 122 % of control | endpoint: mean survival time, dose: 50.0 mg/kg/injection, schedule: Q06HX012 (oral), vehicle: steriod suspending solution 101 % of control | endpoint: mean survival time, dose: 64.0 mg/kg/injection, schedule: Q04DX003 (ip), vehicle: saline with Tween-80 124 % of control | endpoint: mean survival time, dose: 100.0 mg/kg/injection, schedule: Q01DX001 (ip), vehicle: saline 113 % of control | endpoint: mean survival time, dose: 100.0 mg/kg/injection, schedule: Q01DX001 (oral), vehicle: steriod suspending solution 111 % of control | endpoint: mean survival time, dose: 100.0 mg/kg/injection, schedule: Q01DX009 (oral), vehicle: steriod suspending solution 95 % of control and 103 % of control | endpoint: mean survival time, dose: 100.0 mg/kg/injection, schedule: Q01DX Z (ip), vehicle: steriod suspending solution 113 % of control | endpoint: mean survival time, dose: 100.0 mg/kg/injection, schedule: Q04DX003 (iv), vehicle: water 112 % of control and 115 % of control and 119 % of control | endpoint: mean survival time, dose: 100.0 mg/kg/injection, schedule: Q08DX002 (oral), vehicle: steriod suspending solution 122 % of control | endpoint: mean survival time, dose: 120.0 mg/kg/injection, schedule: Q01DX009 (ip), vehicle: saline with Tween-80 118 % of control | endpoint: mean survival time, dose: 128.0 mg/kg/injection, schedule: Q01DX009 (ip), vehicle: saline with Tween-80 112 % of control | endpoint: mean survival time, dose: 200.0 mg/kg/injection, schedule: Q01DX001 (ip), vehicle: saline 120 % of control | endpoint: mean survival time, dose: 200.0 mg/kg/injection, schedule: Q01DX001 (oral), vehicle: steriod suspending solution 107 % of control | endpoint: mean survival time, dose: 200.0 mg/kg/injection, schedule: Q08DX002 (oral), vehicle: steriod suspending solution 120 % of control | endpoint: mean survival time, dose: 240.0 mg/kg/injection, schedule: Q01DX009 (ip), vehicle: saline with Tween-80 96 % of control | endpoint: mean survival time, dose: 400.0 mg/kg/injection, schedule: Q01DX001 (oral), vehicle: steriod suspending solution 114 % of control | endpoint: mean survival time, dose: 400.0 mg/kg/injection, schedule: Q08DX002 (oral), vehicle: steriod suspending solution 119 % of control | endpoint: mean survival time, dose: 800.0 mg/kg/injection, schedule: Q04DX003 (ip), vehicle: water 120 % of control | endpoint: mean survival time, dose: 800.0 mg/kg/injection, schedule: Q08DX002 (ip), vehicle: steriod suspending solution 111 % of control | endpoint: mean survival time, dose: 1024.0 mg/kg/injection, schedule: Q04DX003 (oral), vehicle: saline with Tween-80 120 % of control | endpoint: mean survival time, dose: 2048.0 mg/kg/injection, schedule: Q04DX003 (oral), vehicle: saline with Tween-80 94 % of control | endpoint: median survival time, dose: 8.0 mg/kg/injection, schedule: Q01DX009 (sc), vehicle: saline with Tween-80 120 % of control | endpoint: median survival time, dose: 16.0 mg/kg/injection, schedule: Q03HX024 (ip), vehicle: saline with Tween-80 113 % of control | endpoint: median survival time, dose: 50.0 mg/kg/injection, schedule: Q03HX008 (ip), vehicle: Klucel (hydroxypropylcellulose) (HPC) 115 % of control | endpoint: median survival time, dose: 64.0 mg/kg/injection, schedule: Q01DX001 (ip), vehicle: saline with Tween-80 105 % of control | endpoint: median survival time, dose: 64.0 mg/kg/injection, schedule: Q03HX016 (ip), vehicle: saline with Tween-80 96 % of control | endpoint: median survival time, dose: 64.0 mg/kg/injection, schedule: Q08DX002 (ip), vehicle: saline with Tween-80 109 % of control | endpoint: median survival time, dose: 100.0 mg/kg/injection, schedule: Q01DX001 (ip), vehicle: other 122 % of control | endpoint: median survival time, dose: 100.0 mg/kg/injection, schedule: Q01DX001 (ip), vehicle: steriod suspending solution 122 % of control | endpoint: median survival time, dose: 100.0 mg/kg/injection, schedule: Q04DX003 (ip), vehicle: other 122 % of control | endpoint: median survival time, dose: 108.0 mg/kg/injection, schedule: Q01DX001 (ip), vehicle: Klucel (hydroxypropylcellulose) (HPC) 114 % of control and 120 % of control | endpoint: median survival time, dose: 128.0 mg/kg/injection, schedule: Q01DX001 (ip), vehicle: saline with Tween-80 109 % of control | endpoint: median survival time, dose: 128.0 mg/kg/injection, schedule: Q01DX009 (sc), vehicle: saline with Tween-80 107 % of control | endpoint: median survival time, dose: 128.0 mg/kg/injection, schedule: Q04DX003 (ip), vehicle: saline with Tween-80 124 % of control | endpoint: median survival time, dose: 128.0 mg/kg/injection, schedule: Q08DX002 (ip), vehicle: saline with Tween-80 119 % of control | endpoint: median survival time, dose: 180.0 mg/kg/injection, schedule: Q01DX001 (ip), vehicle: Klucel (hydroxypropylcellulose) (HPC) 118 % of control and 120 % of control | endpoint: median survival time, dose: 256.0 mg/kg/injection, schedule: Q01DX001 (ip), vehicle: saline with Tween-80 113 % of control | endpoint: median survival time, dose: 400.0 mg/kg/injection, schedule: Q04DX003 (ip), vehicle: other 94 % of control | endpoint: median survival time, dose: 700.0 mg/kg/injection, schedule: Q04DX003 (ip), vehicle: Klucel (hydroxypropylcellulose) (HPC) 105 % of control and 106 % of control
active: endpoint: mean survival time, dose: 1.6 mg/kg/injection, schedule: Q03HX024 (ip), vehicle: steriod suspending solution 156 % of control | endpoint: mean survival time, dose: 12.5 mg/kg/injection, schedule: Q01DX009 (oral), vehicle: steriod suspending solution 156 % of control | endpoint: mean survival time, dose: 12.5 mg/kg/injection, schedule: Q01DX Z (ip), vehicle: steriod suspending solution 154 % of control | endpoint: mean survival time, dose: 18.0 mg/kg/injection, schedule: Q01DX009 (ip), vehicle: saline 151 % of control | endpoint: mean survival time, dose: 25.0 mg/kg/injection, schedule: Q03HX008 (ip), vehicle: steriod suspending solution 155 % of control | endpoint: mean survival time, dose: 27.0 mg/kg/injection, schedule: Q01DX009 (ip), vehicle: saline 155 % of control | endpoint: mean survival time, dose: 60.0 mg/kg/injection, schedule: Q01DX009 (ip), vehicle: saline with Tween-80 156 % of control | endpoint: mean survival time, dose: 100.0 mg/kg/injection, schedule: Q04DX003 (ip), vehicle: steriod suspending solution 151 % of control | endpoint: mean survival time, dose: 100.0 mg/kg/injection, schedule: Q08DX002 (ip), vehicle: steriod suspending solution 151 % of control | endpoint: mean survival time, dose: 128.0 mg/kg/injection, schedule: Q04DX003 (oral), vehicle: saline with Tween-80 155 % of control | endpoint: mean survival time, dose: 200.0 mg/kg/injection, schedule: Q04DX003 (oral), vehicle: steriod suspending solution 153 % of control | endpoint: mean survival time, dose: 400.0 mg/kg/injection, schedule: Q04DX003 (oral), vehicle: steriod suspending solution 155 % of control | endpoint: mean survival time, dose: 400.0 mg/kg/injection, schedule: Q08DX002 (ip), vehicle: steriod suspending solution 156 % of control | endpoint: mean survival time, dose: 512.0 mg/kg/injection, schedule: Q04DX003 (ip), vehicle: saline with Tween-80 155 % of control | endpoint: mean survival time, dose: 800.0 mg/kg/injection, schedule: Q04DX003 (ip), vehicle: Klucel (hydroxypropylcellulose) (HPC) 154 % of control | endpoint: median survival time, dose: 4.0 mg/kg/injection, schedule: Q03HX024 (ip), vehicle: Klucel (hydroxypropylcellulose) (HPC) 153 % of control | endpoint: median survival time, dose: 8.0 mg/kg/injection, schedule: Q03HX008 (ip), vehicle: saline with Tween-80 156 % of control | endpoint: median survival time, dose: 12.5 mg/kg/injection, schedule: Q01DX009 (ip), vehicle: Klucel (hydroxypropylcellulose) (HPC) 150 % of control | endpoint: median survival time, dose: 12.5 mg/kg/injection, schedule: Q03HX008 (ip), vehicle: Klucel (hydroxypropylcellulose) (HPC) 150 % of control | endpoint: median survival time, dose: 16.0 mg/kg/injection, schedule: Q03HX008 (ip), vehicle: saline with Tween-80 154 % of control | endpoint: median survival time, dose: 25.0 mg/kg/injection, schedule: Q01DX009 (ip), vehicle: Klucel (hydroxypropylcellulose) (HPC) 150 % of control | endpoint: median survival time, dose: 25.0 mg/kg/injection, schedule: Q03HX008 (ip), vehicle: Klucel (hydroxypropylcellulose) (HPC) 151 % of control and 155 % of control | endpoint: median survival time, dose: 45.0 mg/kg/injection, schedule: Q03HX024 (ip), vehicle: Klucel (hydroxypropylcellulose) (HPC) 155 % of control | endpoint: median survival time, dose: 64.0 mg/kg/injection, schedule: Q03HX008 (ip), vehicle: saline with Tween-80 156 % of control | endpoint: median survival time, dose: 168.0 mg/kg/injection, schedule: Q04DX003 (ip), vehicle: Klucel (hydroxypropylcellulose) (HPC) 152 % of control and 155 % of control | endpoint: median survival time, dose: 200.0 mg/kg/injection, schedule: Q01DX001 (ip), vehicle: steriod suspending solution 155 % of control | endpoint: median survival time, dose: 400.0 mg/kg/injection, schedule: Q01DX001 (ip), vehicle: steriod suspending solution 150 % of control and 155 % of control | endpoint: median survival time, dose: 512.0 mg/kg/injection, schedule: Q08DX002 (ip), vehicle: saline with Tween-80 150 % of control
